Data: patent US7807701B2, “Dibenzylamine compounds and pharmaceutical use thereof” (Japan Tobacco Inc., priority 2002, dated 2010)

How the values were obtained:
CETP [1] = test: Inhibitory effect exo vivo on CETP activity in total plasma of normal hamster; conditions: average values; for CETP activity (%) 2 (hr later): blood taken 2 hr after administration
Method: Potassium bromide (KBr) was added to plasma (40 mL) of healthy subject and the mixture was adjusted to have a specific density d=1.125 g/mL. The mixture was subjected to density gradient centrifugation (227,000×g, 4° C., 17 hr) and a fraction showing a specific density of d>1.125 g/mL (HDL3 fraction) was harvested. The obtained fraction was dialyzed against PBS solution [10 mmol/L Na2HPO4; 10 mmol/L NaH2PO4; 0.15 mol/L NaCl; […] (pH 7.4)]. Then, tritium-labeled cholesterol (37 MBq) was dissolved in 95% ethanol, gradually added to the above-mentioned HDL3 fraction with stirring and incubated at 37° C. for 18 hr. [By this operation, tritium-labeled cholesterol was esterified by the action of lecithin acyl transferase (LCAT) present on the HDL3 surface and taken up into HDL3 as tritium-labeled cholesteryl ester ([^3H]CE)]. After incubation, KBr was added, the mixture was adjusted to have a specific density d=1.21 g/mL, subjected to density gradient centrifugation (227,000×g, 4° C., 17 hr) and a fraction of specific density […] was harvested. The obtained fraction was dialyzed against the aforementioned PBS solution to give HDL3 incorporating [^3H]CE ([^3H]CE-HDL3, specific density: 1.125<d<1.21, specific activity: 10,000 dpm/μL), which was used as a donor lipoprotein.
(§1) The compound of the present invention was suspended in 0.5% methyl cellulose solution and orally administered once to a healthy hamster with a plastic gavage needle. Blood was taken at 2 or 4 hr after the administration and CETP activity in plasma was measured according to the following method.
The donor lipoprotein obtained above was added to hamster plasma (100 μL) to prepare [^3H]CE-HDL3-containing plasma (ca. 1,000 dpm/μL). The [^3H]CE-HDL3-containing plasma was dispensed to two microtubes by 25 μL each, and one was incubated at 37° C. and the other was incubated at 4° C. for 4 hr each. After ice-cooling, TBS solution (50 μl) containing 1 mol/L magnesium chloride and 2% dextran sulfate was added to each microtube and the mixture was thoroughly stirred. After keeping at […] for 30 min, the mixture was centrifuged (10,000×g, 4° C., 20 min), and the radioactivity in the obtained supernatant (HDL fraction) was measured with a liquid scintillation counter. The radioactivity of the [^3H]CE-HDL3-containing plasma was measured with a liquid scintillation counter, and taken as the total radioactivity. The transfer rate of [^3H]CE was calculated from the following formula using the total radioactivity (Total count), radioactivity by 37° C. incubation (37° C. count) and radioactivity by 4° C. incubation (4° C. count) of the sample of each individual and taken as the CETP activity. CETP activity(transfer ratio (%))={[(4° C. count)−(37° C. count)]/(Total count)}×100
The CETP activity inhibitory ratio of each compound administration group based on the CETP activity of the solvent administration group as 100% was calculated from the following formula and expressed in %.
CETP activity inhibitory ratio (%)=100−[(CETP activity of each compound administration group)/(CETP activity of solvent administration group)×100]

CETP [2] = molecular target: T1, CETP (Homo sapiens, UniProt P11597); test: Inhibitory effect in vitro on CETP activity in total plasma; assay type: biochemical; conditions: plasma of healthy subject with [3H]CE-HDL3, 37° C., 4 hr; average values
T1 construct: The donor lipoprotein obtained above was added to plasma of healthy subject; from tissue; host or cells: whole plasma of healthy subject
T1 sequence (P11597 18-493): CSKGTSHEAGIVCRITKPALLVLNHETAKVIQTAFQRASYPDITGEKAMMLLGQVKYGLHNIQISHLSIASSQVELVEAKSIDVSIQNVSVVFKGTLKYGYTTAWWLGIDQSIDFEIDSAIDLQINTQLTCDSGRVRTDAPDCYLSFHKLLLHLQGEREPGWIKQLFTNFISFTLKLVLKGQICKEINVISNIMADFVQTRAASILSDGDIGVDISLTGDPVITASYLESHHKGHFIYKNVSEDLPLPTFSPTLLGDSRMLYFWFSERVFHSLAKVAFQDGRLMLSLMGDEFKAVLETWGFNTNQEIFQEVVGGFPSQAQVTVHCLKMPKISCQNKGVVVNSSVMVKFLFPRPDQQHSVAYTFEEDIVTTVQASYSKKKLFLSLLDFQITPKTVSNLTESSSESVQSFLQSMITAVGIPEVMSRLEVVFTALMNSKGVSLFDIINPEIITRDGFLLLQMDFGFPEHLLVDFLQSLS
How it was run: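 Healthy-donor plasma spiked with [3H]cholesteryl ester-labelled HDL3 (1,000 dpm/μL) was incubated with compound (DMF vehicle) for 4 hr at 37 °C or 4 °C. HDL was separated by MgCl2/dextran sulfate precipitation and supernatant radioactivity counted. IC50 is the concentration giving 50% inhibition of CETP activity.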

HDL cholesterol = test: Blood HDL cholesterol increasing effect in normal hamster; assay type: in vivo; conditions: single oral dose 3 mg/kg, versus solvent group, average values
Method: as §1
To the plasma (40 μL) obtained from the above-mentioned animal at 4 or 8 hr after the administration was added 15% polyethylene glycol solution (40 μL) and the mixture was thoroughly stirred. After keeping at room temperature for 10 min, the mixture was centrifuged (10,000×g, 4° C., 20 min) and the cholesterol content (HDL cholesterol content) of the obtained supernatant (HDL fraction) was measured. The increase ratio of the HDL cholesterol content of each compound administration group when the HDL cholesterol content of the solvent administration group as 100% was calculated from the following formula and expressed in %. HDL cholesterol increase ratio(%)=[(HDL cholesterol content of each compound administration group/HDL cholesterol content of solvent administration group)×100]−100

CCN(CCCCC(=O)O)c1cc2c(cc1CN(Cc1cc(C(F)(F)F)cc(C(F)(F)F)c1)c1nnn(C)n1)CCC2.Cl [Example 38, 5-[N-(6-{[N′-[3,5-bis(trifluoromethyl)benzyl]-N′-(2-methyl-2H-tetrazol-5-yl)amino]methyl}indan-5-yl)-N-ethylamino]pentanoic acid hydrochloride]
CETP activity (%) 2 (hr later) (CETP [1]; single oral dose 30 mg/kg): 79.4%
IC50 (CETP [2]): 470 nM

CCN(CCCCC(=O)O)c1cc2c(cc1CN(Cc1cc(C#N)cc(C(F)(F)F)c1)c1nnn(C)n1)CCC2.Cl [Example 39, 5-[N-(6-{[N′-(3-cyano-5-trifluoromethylbenzyl)-N′-(2-methyl-2H-tetrazol-5-yl)amino]methyl}indan-5-yl)-N-ethylamino]pentanoic acid hydrochloride]
CETP activity (%) 2 (hr later) (CETP [1]; single oral dose 30 mg/kg): 49.6%
IC50 (CETP [2]): 880 nM

CCN(CCCCC(=O)O)c1cc2c(cc1CN(Cc1cc(C(F)(F)F)cc(C(F)(F)F)c1)c1cc(C)no1)CCC2.Cl [Example 40, 5-[N-(6-{[N′-[3,5-bis(trifluoromethyl)benzyl]-N′-(3-methylisoxazol-5-yl)amino]methyl}indan-5-yl)-N-ethylamino]pentanoic acid hydrochloride]
CETP activity (%) 2 (hr later) (CETP [1]; single oral dose 30 mg/kg): 59.5%
IC50 (CETP [2]): 390 nM

CCN(CCCCC(=O)O)c1cc2c(cc1CN(Cc1cc(C(F)(F)F)cc(C(F)(F)F)c1)c1ccn(C)n1)CCC2.Cl [Example 41, 5-[N-(6-{[N′-[3,5-bis(trifluoromethyl)benzyl]-N′-(1-methyl-1H-pyrazol-3-yl)amino]methyl}indan-5-yl)-N-ethylamino]pentanoic acid hydrochloride]
CETP activity (%) 2 (hr later) (CETP [1]; single oral dose 30 mg/kg): 36.0%
IC50 (CETP [2]): 510 nM

CCN(CCCCC(=O)O)c1ccc(OC(F)(F)F)cc1CN(Cc1cc(C(F)(F)F)cc(C(F)(F)F)c1)c1nnn(C)n1.Cl [Example 89, 5-[N-(2-{[N′-[3,5-bis(trifluoromethyl)benzyl]-N′-(2-methyl-2H-tetrazol-5-yl)amino]methyl}-4-trifluoromethoxyphenyl)-N-ethylamino]pentanoic acid hydrochloride]
CETP activity (%) 2 (hr later) (CETP [1]; single oral dose 10 mg/kg): 77.7%
IC50 (CETP [2]): 690 nM

CCN(CCCCCC(=O)O)c1cc2c(cc1CN(Cc1cc(C(F)(F)F)cc(C(F)(F)F)c1)c1nnn(C)n1)CCC2.Cl [Example 91, 6-[N-(6-{[N′-[3,5-bis(trifluoromethyl)benzyl]-N′-(2-methyl-2H-tetrazol-5-yl)amino]methyl}indan-5-yl)-N-ethylamino]hexanoic acid hydrochloride]
CETP activity (%) 2 (hr later) (CETP [1]; single oral dose 10 mg/kg): 44.7%
IC50 (CETP [2]): 560 nM

CCN(CCC(C)(C)CC(=O)O)c1cc2c(cc1CN(Cc1cc(C(F)(F)F)cc(C(F)(F)F)c1)c1nnn(C)n1)CCC2.Cl [Example 92, 5-[N-(6-{[N′-[3,5-bis(trifluoromethyl)benzyl]-N′-(2-methyl-2H-tetrazol-5-yl)amino]methyl}indan-5-yl)-N-ethylamino]-3,3-dimethylpentanoic acid hydrochloride]
CETP activity (%) 2 (hr later) (CETP [1]; single oral dose 10 mg/kg): 46.9%
IC50 (CETP [2]): 190 nM

CCN(C[C@H]1CC[C@H](C(=O)O)CC1)c1ccc(C(F)(F)F)cc1CN(Cc1cc(C(F)(F)F)cc(C(F)(F)F)c1)c1nnn(C)n1.Cl [Example 96, trans-4-{[N-(2-{[N′-[3,5-bis(trifluoromethyl)benzyl]-N′-(2-methyl-2H-tetrazol-5-yl)amino]methyl}-4-trifluoromethylphenyl)-N-ethylamino]methyl}cyclohexanecarboxylic acid hydrochloride]
CETP activity (%) 2 (hr later) (CETP [1]; single oral dose 10 mg/kg): 41.1%
IC50 (CETP [2]): 310 nM

CCN(C[C@H]1CC[C@H](C(=O)O)CC1)c1ccc(OC(F)(F)F)cc1CN(Cc1cc(C(F)(F)F)cc(C(F)(F)F)c1)c1nnn(C)n1.Cl [Example 98, trans-4-[{N-(2-{[N′-[3,5-bis(trifluoromethyl)benzyl]-N′-(2-methyl-2H-tetrazol-5-yl)amino]methyl}-4-trifluoromethoxyphenyl)-N-ethylamino]methyl}cyclohexanecarboxylic acid hydrochloride]
CETP activity (%) 2 (hr later) (CETP [1]; single oral dose 10 mg/kg): 43.3%
IC50 (CETP [2]): 300 nM

CCN(CCC(C)(C)CC(=O)O)c1ccc(OC(F)(F)F)cc1CN(Cc1cc(C(F)(F)F)cc(C(F)(F)F)c1)c1ccn(C)n1.Cl [Example 107, 5-[N-(2-{[N′-[3,5-bis(trifluoromethyl)benzyl]-N′-(1-methyl-1H-pyrazol-3-yl)amino]methyl}-4-trifluoromethoxyphenyl)-N-ethylamino]-3,3-dimethylpentanoic acid hydrochloride]
CETP activity (%) 2 (hr later) (CETP [1]; single oral dose 10 mg/kg): 41.9%
IC50 (CETP [2]): 560 nM

CCN(CCC(C)(C)CC(=O)O)c1ccc(OC(F)(F)F)cc1CN(Cc1cc(C(F)(F)F)cc(C(F)(F)F)c1)c1noc(C)n1.Cl [Example 108, 5-[N-(2-{[N′-[3,5-bis(trifluoromethyl)benzyl]-N′-(5-methyl-[1,2,4]oxadiazol-3-yl)amino]methyl}-4-trifluoromethoxyphenyl)-N-ethylamino]-3,3-dimethylpentanoic acid hydrochloride]
CETP activity (%) 2 (hr later) (CETP [1]; single oral dose 10 mg/kg): 53.8%
IC50 (CETP [2]): 250 nM

CCN(C[C@H]1CC[C@H](C(=O)O)CC1)c1ccc(OC(F)(F)F)cc1CN(Cc1cc(C(F)(F)F)cc(C(F)(F)F)c1)c1noc(C)n1.Cl [Example 109, trans-4-{[N-(2-{[N′-[3,5-bis(trifluoromethyl)benzyl]-N′-(5-methyl-[1,2,4]oxadiazol-3-yl)amino]methyl}-4-trifluoromethoxyphenyl)-N-ethylamino]methyl}cyclohexanecarboxylic acid hydrochloride]
CETP activity (%) 2 (hr later) (CETP [1]; single oral dose 10 mg/kg): 42.8%
IC50 (CETP [2]): 160 nM

CCCN(C[C@H]1CC[C@H](CC(=O)O)CC1)c1ccc(C(F)(F)F)cc1CN(Cc1cc(C(F)(F)F)cc(C(F)(F)F)c1)c1nnn(C)n1.Cl [Example 154, trans-(4-{[N-(2-{[N′-[3,5-bis(trifluoromethyl)benzyl]-N′-(2-methyl-2H-tetrazol-5-yl)amino]methyl}-4-trifluoromethylphenyl)-N-propylamino]methyl}cyclohexyl)acetic acid hydrochloride]
CETP activity (%) 4 (hr later) (CETP [1]; single oral dose 3 mg/kg, blood taken 4 hr after administration): 64.2%
HDL cholesterol increase content (%) 4 (hr later) (HDL cholesterol; 4 hr after administration): 13.3%
HDL cholesterol increase content (%) 8 (hr later) (HDL cholesterol; 8 hr after administration): 22.4%
